Several values for one entry are separate records, joined by “and”; a condition that tells them apart may be missing. Equal entries are not always repeated. Toxic doses and inconclusive results are not listed. No stated cut-off is given here; in the data, active means T/C of 150% or more; inactive means T/C below 125%.
Tested on: L1210 leukemia ip in BDF1 mice, survival T/C
Assay: NCI In Vivo Anticancer Drug Screen. Data for tumor model L1210 Leukemia (intraperitoneal) in B6D2F1 (BDF1) mice
Conditions: endpoint: mean survival time, higher = longer survival
Summary of the method: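 Transplantable tumor model; survival measured in treated vs vehicle control mice. Value = treated/control.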

[1] = dose: 100.0 mg/kg/injection, schedule: Q04DX003 (ip), vehicle: Klucel (hydroxypropylcellulose) (HPC)
[2] = dose: 200.0 mg/kg/injection, schedule: Q04DX003 (ip), vehicle: Klucel (hydroxypropylcellulose) (HPC)
[3] = dose: 400.0 mg/kg/injection, schedule: Q04DX003 (ip), vehicle: Klucel (hydroxypropylcellulose) (HPC)
[4] = dose: 12.5 mg/kg/injection, schedule: Q04DX003 (ip), vehicle: saline
[5] = dose: 25.0 mg/kg/injection, schedule: Q04DX003 (ip), vehicle: saline
[6] = dose: 100.0 mg/kg/injection, schedule: Q01DX009 (ip), vehicle: saline
[7] = dose: 200.0 mg/kg/injection, schedule: Q01DX009 (ip), vehicle: saline
[8] = dose: 400.0 mg/kg/injection, schedule: Q01DX009 (ip), vehicle: saline
[9] = dose: 100.0 mg/kg/injection, schedule: Q01DX009 (ip), vehicle: Klucel (hydroxypropylcellulose) (HPC)
[10] = dose: 200.0 mg/kg/injection, schedule: Q01DX009 (ip), vehicle: Klucel (hydroxypropylcellulose) (HPC)
[11] = dose: 400.0 mg/kg/injection, schedule: Q01DX009 (ip), vehicle: Klucel (hydroxypropylcellulose) (HPC)
[12] = dose: 200.0 mg/kg/injection, schedule: Q01DX009 (ip), vehicle: saline with Tween-80
[13] = dose: 100.0 mg/kg/injection, schedule: Q01DX001 (ip), vehicle: carboxymethylcellulose (CMC)

Measured: T/C

O=C(O)/C=C\C(=O)Nc1ccc(O)cc1
inactive: [1] 102 % of control | dose: 200.0 mg/kg/injection, schedule: Q01DX Z (ip), vehicle: saline 120 % of control | [2] 110 % of control | [3] 110 % of control | dose: 675.0 mg/kg/injection, schedule: Q01DX Z (ip), vehicle: saline 100 % of control

COc1cc2c(cc1OC)-c1cc3ccc(OC)c(OC)c3c[n+]1CC2
inactive: dose: 6.25 mg/kg/injection, schedule: Q04DX003 (ip), vehicle: saline 105 % of control | [4] 101 % of control | [5] 103 % of control

CC12CC3CC(C)(C1)CC(CN=C(N)CS)(C3)C2
inactive: dose: 2.5 mg/kg/injection, schedule: Q01DX009 (ip), vehicle: Klucel (hydroxypropylcellulose) (HPC) 109 % of control | dose: 2.5 mg/kg/injection, schedule: Q04DX002 (ip), vehicle: Klucel (hydroxypropylcellulose) (HPC) 96 % of control | dose: 5.0 mg/kg/injection, schedule: Q01DX009 (ip), vehicle: Klucel (hydroxypropylcellulose) (HPC) 114 % of control | dose: 5.0 mg/kg/injection, schedule: Q04DX002 (ip), vehicle: Klucel (hydroxypropylcellulose) (HPC) 101 % of control | dose: 10.0 mg/kg/injection, schedule: Q01DX009 (ip), vehicle: Klucel (hydroxypropylcellulose) (HPC) 111 % of control | dose: 10.0 mg/kg/injection, schedule: Q04DX002 (ip), vehicle: Klucel (hydroxypropylcellulose) (HPC) 102 % of control

COC(=N)c1cccc(O)c1
inactive: [6] 99 % of control | [7] 97 % of control | [8] 99 % of control

C[n+]1ccc(/C=C/c2ccc(Cl)c(Cl)c2)c2ccccc21
inactive: dose: 12.5 mg/kg/injection, schedule: Q04DX003 (ip), vehicle: Klucel (hydroxypropylcellulose) (HPC) 98 % of control | dose: 25.0 mg/kg/injection, schedule: Q04DX003 (ip), vehicle: Klucel (hydroxypropylcellulose) (HPC) 100 % of control | dose: 50.0 mg/kg/injection, schedule: Q04DX003 (ip), vehicle: Klucel (hydroxypropylcellulose) (HPC) 96 % of control

C/C=C\COC(=O)COc1ccc(Cl)cc1
inactive: [1] 94 % of control | [2] 96 % of control | [3] 107 % of control

S=C1Nc2ccccc2CS1
inactive: [9] 100 % of control | [10] 98 % of control | [11] 102 % of control

CC(=O)Nc1c([N+](=O)[O-])cc2c3c(cccc13)C=C2
inactive: [12] 96 % of control | dose: 400.0 mg/kg/injection, schedule: Q01DX009 (ip), vehicle: saline with Tween-80 96 % of control

Cc1ccc(S(=O)(=O)Nc2ccc([N+](=O)[O-])cc2OS(=O)(=O)c2ccc(C)cc2)cc1
inactive: [6] 97 % of control | [7] 101 % of control | [8] 95 % of control

CC(=O)Nc1cccc2cc(O)ccc12
inactive: dose: 100.0 mg/kg/injection, schedule: Q04DX003 (ip), vehicle: gum acacia 98 % of control | dose: 200.0 mg/kg/injection, schedule: Q04DX003 (ip), vehicle: gum acacia 100 % of control | dose: 400.0 mg/kg/injection, schedule: Q04DX003 (ip), vehicle: gum acacia 88 % of control

O=C(OC1COC(Br)C(OC(=O)c2ccc([N+](=O)[O-])cc2)C1OC(=O)c1ccc([N+](=O)[O-])cc1)c1ccc([N+](=O)[O-])cc1 (stereo not drawn)
inactive: dose: 100.0 mg/kg/injection, schedule: Q01DX001 (ip), vehicle: saline 98 % of control | dose: 200.0 mg/kg/injection, schedule: Q01DX001 (ip), vehicle: saline 96 % of control | dose: 400.0 mg/kg/injection, schedule: Q01DX001 (ip), vehicle: saline 91 % of control

CNc1nc(Cl)nc(Cl)n1
inactive: dose: 100.0 mg/kg/injection, schedule: Q04DX003 (ip), vehicle: saline 87 % of control | dose: 200.0 mg/kg/injection, schedule: Q04DX003 (ip), vehicle: saline 87 % of control

COc1ccc(/C=C(\C(=O)c2ccc(O)cc2)c2ccccc2)cc1OC
inactive: [13] 94 % of control | dose: 200.0 mg/kg/injection, schedule: Q01DX001 (ip), vehicle: carboxymethylcellulose (CMC) 89 % of control | dose: 400.0 mg/kg/injection, schedule: Q01DX001 (ip), vehicle: carboxymethylcellulose (CMC) 89 % of control

CN(/N=N/c1nc[nH]c1C(=O)N/N=C/c1ccc(N(CCCl)CCCl)cc1)C1CCCCC1
inactive: dose: 100.0 mg/kg/injection, schedule: Q01DX001 (ip), vehicle: other 95 % of control | dose: 200.0 mg/kg/injection, schedule: Q01DX001 (ip), vehicle: other 95 % of control | dose: 400.0 mg/kg/injection, schedule: Q01DX001 (ip), vehicle: other 90 % of control

NCC(=O)NC1(C(=O)O)C2CC3CC(C2)CC1C3 (stereo not drawn)
inactive: dose: 25.0 mg/kg/injection, schedule: Q01DX009 (ip), vehicle: Klucel (hydroxypropylcellulose) (HPC) 96 % of control | dose: 50.0 mg/kg/injection, schedule: Q01DX009 (ip), vehicle: Klucel (hydroxypropylcellulose) (HPC) 94 % of control | [9] 94 % of control and 96 % of control | [10] 103 % of control | [11] 103 % of control

CC(C)CN(C)N=Nc1ccc(C(=N)N)cc1
inactive: dose: 5.0 mg/kg/injection, schedule: Q01DX001 (ip), vehicle: carboxymethylcellulose (CMC) 94 % of control | dose: 10.0 mg/kg/injection, schedule: Q01DX001 (ip), vehicle: carboxymethylcellulose (CMC) 97 % of control | dose: 20.0 mg/kg/injection, schedule: Q01DX001 (ip), vehicle: carboxymethylcellulose (CMC) 97 % of control | dose: 40.0 mg/kg/injection, schedule: Q01DX001 (ip), vehicle: carboxymethylcellulose (CMC) 92 % of control | dose: 80.0 mg/kg/injection, schedule: Q01DX001 (ip), vehicle: carboxymethylcellulose (CMC) 91 % of control | [13] 105 % of control

OC1CCCCC1(c1ccccc1)c1ccccc1 (stereo not drawn)
inactive: dose: 50.0 mg/kg/injection, schedule: Q01DX009 (ip), vehicle: saline with Tween-80 94 % of control | dose: 100.0 mg/kg/injection, schedule: Q01DX009 (ip), vehicle: saline with Tween-80 91 % of control | [12] 91 % of control

Cc1ccc2nc3c4ccccc4c4ccccc4c3nc2c1
inactive: [9] 101 % of control | [1] 105 % of control | [10] 102 % of control | [2] 105 % of control | [11] 101 % of control | [3] 98 % of control

O=C(OCC1CCN2CCCC12)c1ccccc1 (stereo not drawn)
inactive: [4] 104 % of control | [5] 110 % of control | dose: 50.0 mg/kg/injection, schedule: Q04DX003 (ip), vehicle: saline 102 % of control

From PubChem BioAssay AID248 (DTP/NCI, 2004)
